This passage reports AC50 results from ChEMBL document CHEMBL5291721, “A preclinical secondary pharmacology resource illuminates target-adverse drug reaction associations of marketed drugs” (Nat Commun, 2023).

The structures appear in SMILES notation. A value given as a limit tells only on which side of the number the result lay.

Assay [1] has as its target Beta-1 adrenergic receptor (Homo sapiens, UniProt P08588). The assay is classed as functional.
For another assay, the target named is T1, B2 bradykinin receptor (Homo sapiens, UniProt P30411).
T1 sequence (P30411 whole entry): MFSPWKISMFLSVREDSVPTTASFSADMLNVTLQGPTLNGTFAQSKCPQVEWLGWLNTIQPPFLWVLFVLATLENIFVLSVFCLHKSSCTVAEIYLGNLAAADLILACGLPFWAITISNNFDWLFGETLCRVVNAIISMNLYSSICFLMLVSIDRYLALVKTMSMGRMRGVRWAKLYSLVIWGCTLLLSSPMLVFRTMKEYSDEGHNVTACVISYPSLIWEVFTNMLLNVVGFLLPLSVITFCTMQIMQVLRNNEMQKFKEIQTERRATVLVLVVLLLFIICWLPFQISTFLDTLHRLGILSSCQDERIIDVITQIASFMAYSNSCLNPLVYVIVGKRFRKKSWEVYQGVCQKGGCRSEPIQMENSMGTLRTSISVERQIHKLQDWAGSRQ

For assay [2], the target named is T2, Cholecystokinin receptor type A (Homo sapiens, UniProt P32238).
T2 sequence (P32238 whole entry): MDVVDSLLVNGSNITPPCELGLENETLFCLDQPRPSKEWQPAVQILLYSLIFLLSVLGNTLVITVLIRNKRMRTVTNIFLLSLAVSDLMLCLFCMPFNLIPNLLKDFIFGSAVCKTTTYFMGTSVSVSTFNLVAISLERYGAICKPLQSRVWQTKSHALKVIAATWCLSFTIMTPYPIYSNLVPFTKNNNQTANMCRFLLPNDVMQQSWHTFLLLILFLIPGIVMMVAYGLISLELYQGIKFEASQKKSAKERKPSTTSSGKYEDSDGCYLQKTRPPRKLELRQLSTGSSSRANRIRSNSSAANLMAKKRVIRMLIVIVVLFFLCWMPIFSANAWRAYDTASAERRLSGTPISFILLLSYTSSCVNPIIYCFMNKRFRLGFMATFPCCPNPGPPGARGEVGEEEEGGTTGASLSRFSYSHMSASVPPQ

Assay [3] has as its target Muscarinic acetylcholine receptor M3 (Homo sapiens, UniProt P20309).
The next assay addresses Cannabinoid receptor 1 (Homo sapiens, UniProt P21554).
In assay [4] the target is T3, 5-hydroxytryptamine receptor 1A (Homo sapiens, UniProt P08908).
T3 sequence (P08908 whole entry): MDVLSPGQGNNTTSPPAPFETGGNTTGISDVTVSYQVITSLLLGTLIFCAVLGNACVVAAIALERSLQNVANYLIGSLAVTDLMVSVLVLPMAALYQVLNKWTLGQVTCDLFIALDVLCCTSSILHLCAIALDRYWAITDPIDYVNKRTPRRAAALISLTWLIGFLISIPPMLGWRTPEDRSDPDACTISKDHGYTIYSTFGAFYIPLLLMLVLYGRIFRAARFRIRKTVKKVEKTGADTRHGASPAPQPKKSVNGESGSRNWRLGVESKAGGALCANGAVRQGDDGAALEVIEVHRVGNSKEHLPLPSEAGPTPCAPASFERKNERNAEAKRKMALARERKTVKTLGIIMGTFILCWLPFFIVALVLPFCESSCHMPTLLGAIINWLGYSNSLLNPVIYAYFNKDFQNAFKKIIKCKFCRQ
The assay is classed as functional, cell-based.

Assay [5] has as its target Neurotensin receptor type 1 (Homo sapiens, UniProt P30989).
For assay [6], the target named is Sodium-dependent serotonin transporter (Homo sapiens, UniProt P31645).
For the next assay, the target named is T4, Progesterone receptor (Homo sapiens, UniProt P06401).
T4 sequence (P06401 whole entry): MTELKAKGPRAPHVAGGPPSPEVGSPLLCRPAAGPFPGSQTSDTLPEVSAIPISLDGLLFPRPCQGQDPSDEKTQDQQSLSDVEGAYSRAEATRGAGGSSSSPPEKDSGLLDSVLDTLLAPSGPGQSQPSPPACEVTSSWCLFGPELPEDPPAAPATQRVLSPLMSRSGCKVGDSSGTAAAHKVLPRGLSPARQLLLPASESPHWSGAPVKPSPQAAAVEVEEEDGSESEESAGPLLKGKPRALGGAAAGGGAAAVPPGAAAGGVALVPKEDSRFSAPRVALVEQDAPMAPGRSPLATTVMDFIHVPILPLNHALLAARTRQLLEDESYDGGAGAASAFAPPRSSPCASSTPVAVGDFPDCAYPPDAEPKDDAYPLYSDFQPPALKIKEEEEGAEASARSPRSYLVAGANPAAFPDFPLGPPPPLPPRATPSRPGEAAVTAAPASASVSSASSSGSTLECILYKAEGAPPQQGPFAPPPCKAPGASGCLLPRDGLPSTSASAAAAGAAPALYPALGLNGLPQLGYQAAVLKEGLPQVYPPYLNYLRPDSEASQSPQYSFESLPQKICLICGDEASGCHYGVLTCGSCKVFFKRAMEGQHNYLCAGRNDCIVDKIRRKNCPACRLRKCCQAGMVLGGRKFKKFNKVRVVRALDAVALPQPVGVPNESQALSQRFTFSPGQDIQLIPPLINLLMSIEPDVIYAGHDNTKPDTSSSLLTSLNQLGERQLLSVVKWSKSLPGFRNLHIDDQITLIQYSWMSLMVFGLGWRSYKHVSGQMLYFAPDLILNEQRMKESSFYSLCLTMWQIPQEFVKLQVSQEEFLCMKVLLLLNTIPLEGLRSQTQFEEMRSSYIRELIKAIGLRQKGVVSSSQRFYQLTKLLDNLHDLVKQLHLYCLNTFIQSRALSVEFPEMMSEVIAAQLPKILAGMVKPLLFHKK
The assay is classed as functional.
Further: assay procedure not described here.

Neurotensin receptor type 1, sequence (P30989 whole entry): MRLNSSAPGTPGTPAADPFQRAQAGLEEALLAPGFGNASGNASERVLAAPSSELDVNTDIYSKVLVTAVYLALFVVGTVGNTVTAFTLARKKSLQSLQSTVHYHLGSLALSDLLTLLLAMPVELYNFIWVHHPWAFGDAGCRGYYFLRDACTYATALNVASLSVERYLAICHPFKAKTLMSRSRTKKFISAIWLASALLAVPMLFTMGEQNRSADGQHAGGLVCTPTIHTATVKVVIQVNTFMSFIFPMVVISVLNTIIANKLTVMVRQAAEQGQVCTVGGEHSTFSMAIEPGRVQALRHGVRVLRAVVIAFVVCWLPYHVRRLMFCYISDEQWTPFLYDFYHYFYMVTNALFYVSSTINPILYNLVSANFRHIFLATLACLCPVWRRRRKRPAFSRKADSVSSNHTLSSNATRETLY
Beta-1 adrenergic receptor, sequence (P08588 whole entry): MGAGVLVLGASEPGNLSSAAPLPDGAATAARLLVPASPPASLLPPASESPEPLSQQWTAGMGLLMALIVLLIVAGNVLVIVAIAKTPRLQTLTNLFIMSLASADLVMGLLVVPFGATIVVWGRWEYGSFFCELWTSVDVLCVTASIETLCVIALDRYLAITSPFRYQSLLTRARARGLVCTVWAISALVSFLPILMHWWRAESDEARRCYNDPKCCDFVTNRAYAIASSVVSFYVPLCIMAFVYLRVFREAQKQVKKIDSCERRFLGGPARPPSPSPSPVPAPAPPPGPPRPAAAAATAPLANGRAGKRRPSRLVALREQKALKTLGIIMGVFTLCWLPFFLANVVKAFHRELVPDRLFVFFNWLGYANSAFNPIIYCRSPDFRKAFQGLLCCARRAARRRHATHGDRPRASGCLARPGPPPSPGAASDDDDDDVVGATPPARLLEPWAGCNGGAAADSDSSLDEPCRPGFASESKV
Cannabinoid receptor 1, sequence (P21554 whole entry): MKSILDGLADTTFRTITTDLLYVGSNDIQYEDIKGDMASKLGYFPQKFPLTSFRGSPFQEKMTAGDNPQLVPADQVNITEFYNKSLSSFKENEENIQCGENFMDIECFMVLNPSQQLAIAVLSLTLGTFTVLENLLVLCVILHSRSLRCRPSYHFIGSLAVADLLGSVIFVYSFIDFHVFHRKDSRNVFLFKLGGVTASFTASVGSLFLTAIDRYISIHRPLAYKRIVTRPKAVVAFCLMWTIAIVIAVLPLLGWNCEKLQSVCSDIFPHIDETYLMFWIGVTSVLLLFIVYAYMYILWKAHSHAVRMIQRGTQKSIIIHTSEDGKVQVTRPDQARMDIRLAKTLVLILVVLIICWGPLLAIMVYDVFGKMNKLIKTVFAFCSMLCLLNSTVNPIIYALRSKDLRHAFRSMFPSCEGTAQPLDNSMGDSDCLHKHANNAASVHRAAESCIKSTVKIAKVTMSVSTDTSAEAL
Sodium-dependent serotonin transporter, sequence (P31645 whole entry): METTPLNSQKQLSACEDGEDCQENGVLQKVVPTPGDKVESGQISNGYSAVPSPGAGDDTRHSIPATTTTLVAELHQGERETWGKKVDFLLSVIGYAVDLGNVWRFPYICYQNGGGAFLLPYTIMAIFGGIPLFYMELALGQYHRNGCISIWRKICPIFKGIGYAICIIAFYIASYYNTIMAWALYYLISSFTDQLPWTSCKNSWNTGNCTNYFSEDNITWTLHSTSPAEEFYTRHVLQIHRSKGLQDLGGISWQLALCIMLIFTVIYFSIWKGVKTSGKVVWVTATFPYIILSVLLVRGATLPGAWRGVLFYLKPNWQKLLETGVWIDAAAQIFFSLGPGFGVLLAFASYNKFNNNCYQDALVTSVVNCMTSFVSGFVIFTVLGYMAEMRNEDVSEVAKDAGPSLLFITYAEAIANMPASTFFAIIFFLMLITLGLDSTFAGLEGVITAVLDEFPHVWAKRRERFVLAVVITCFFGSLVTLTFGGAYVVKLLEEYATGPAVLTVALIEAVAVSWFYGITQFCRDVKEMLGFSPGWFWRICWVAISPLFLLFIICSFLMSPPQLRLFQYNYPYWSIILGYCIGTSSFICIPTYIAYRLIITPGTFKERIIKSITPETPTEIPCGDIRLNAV
Muscarinic acetylcholine receptor M3, sequence (P20309 whole entry): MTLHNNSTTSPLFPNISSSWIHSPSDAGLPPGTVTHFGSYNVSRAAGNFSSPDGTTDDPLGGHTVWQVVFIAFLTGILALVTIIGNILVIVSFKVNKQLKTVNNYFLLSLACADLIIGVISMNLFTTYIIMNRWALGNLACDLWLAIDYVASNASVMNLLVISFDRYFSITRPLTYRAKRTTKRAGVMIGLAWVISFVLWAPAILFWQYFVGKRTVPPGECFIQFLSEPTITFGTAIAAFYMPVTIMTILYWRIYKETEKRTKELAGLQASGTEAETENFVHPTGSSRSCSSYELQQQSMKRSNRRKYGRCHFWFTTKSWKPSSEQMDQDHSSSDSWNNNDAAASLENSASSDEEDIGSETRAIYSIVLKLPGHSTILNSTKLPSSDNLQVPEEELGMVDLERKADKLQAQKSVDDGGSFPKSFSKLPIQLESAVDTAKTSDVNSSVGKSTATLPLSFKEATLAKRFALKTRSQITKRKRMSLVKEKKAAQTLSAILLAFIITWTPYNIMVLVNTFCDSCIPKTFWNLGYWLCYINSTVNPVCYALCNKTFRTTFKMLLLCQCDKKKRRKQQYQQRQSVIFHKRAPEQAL

Regarding `O=C(Nc1ccccc1)OCC(CN1CCCCC1)OC(=O)Nc1ccccc1` (centres undefined) [DIPERODON], the AC50 (as a rule, the concentration giving half of the maximal activity seen) in assay [1] is more than 10 µM; at B2 bradykinin receptor it was more than 30 µM; in assay [2], 15 µM; in assay [3] it was more than 10 µM; at Cannabinoid receptor 1 it was more than 10 µM; in assay [4], more than 10 µM. The values for the AC50 in assay [5] and in [6] were more than 30 µM and more than 10 µM, respectively.

On to `C[N+](C)(C)CC(=O)O` [BETAINE], for which the AC50 (in [1]; on B2 bradykinin receptor; in [2]; in [3]; in assay [4]; on Progesterone receptor) was more than 30 µM throughout. Further, the half-maximal activity concentration (AC50) in assay [6] was more than 30 µM.

Take `CCCC(=O)N1CCCN(c2nc(N)c3cc(OC)c(OC)cc3n2)CC1` [BUNAZOSIN]: the concentration at half-maximal activity (AC50) (in [1]; at B2 bradykinin receptor; in [2]; in [3]; in [4]; at Progesterone receptor) was more than 30 µM each time. In assay [6], this molecule returned an AC50 of more than 30 µM.

With `CC(=O)N(CC(O)CO)c1c(I)c(C(=O)NCC(O)CO)c(I)c(C(=O)NCC(O)CO)c1I` (centres undefined) [IOHEXOL], the AC50 in assay [1] is more than 30 µM; on B2 bradykinin receptor, more than 30 µM; in assay [2] it was more than 30 µM; in [3] it was more than 30 µM; in assay [4] it was more than 10 µM; in [6], more than 30 µM.

Take `CC(C)(N)Cc1ccc(Cl)cc1` [CHLORPHENTERMINE]: the half-maximal activity concentration (AC50) in [1] is more than 10 µM; at B2 bradykinin receptor, more than 30 µM; in [2], more than 30 µM; in assay [3], more than 30 µM; on Cannabinoid receptor 1 it was more than 10 µM; in assay [4], more than 10 µM. Further, the half-maximal activity concentration (AC50) in assay [5] was more than 30 µM; in assay [6], 4.57 µM.

Consider `CC(C(O)c1ccc(O)cc1)N1CCC(Cc2ccccc2)CC1` (centres undefined) [IFENPRODIL], for which the half-maximal activity concentration (AC50) in [1] is 23 µM; at B2 bradykinin receptor, more than 30 µM; in assay [2], more than 30 µM; in assay [3] it was more than 30 µM; in assay [6] it was 0.28 µM.

Take `O=C1CCC(N2C(=O)c3ccccc3C2=O)C(=O)N1` (centres undefined) [THALIDOMIDE]: the half-maximal activity concentration (AC50) in assay [1] is more than 10 µM; on B2 bradykinin receptor it was more than 30 µM; in assay [2] it was more than 30 µM; at Cannabinoid receptor 1, more than 10 µM; in assay [4] it was more than 10 µM; in assay [5], more than 30 µM.

On to `CC(C)NCC1CCc2cc(CO)c([N+](=O)[O-])cc2N1` (centres undefined) [OXAMNIQUINE], for which the AC50 in assay [1] is more than 10 µM; at B2 bradykinin receptor, more than 10 µM; in assay [2], more than 10 µM; in [3] it was more than 30 µM; at Cannabinoid receptor 1, more than 10 µM; in assay [4] it was more than 30 µM. In addition, the AC50 at Progesterone receptor was more than 10 µM; in assay [6] it was 39.6 µM.

Take `CN(C)[C@@H]1C(O)=C(C(N)=O)C(=O)[C@@]2(O)C(O)=C3C(=O)c4c(O)ccc(Cl)c4[C@@H](O)[C@H]3C[C@@H]12` [DEMECLOCYCLINE]: the AC50 is more than 10 µM in [1]; more than 10 µM at B2 bradykinin receptor; more than 10 µM in [2]; more than 30 µM in assay [3]; more than 10 µM at Cannabinoid receptor 1; more than 10 µM in [4]. The AC50 on Progesterone receptor was more than 30 µM; in assay [6], more than 10 µM.

For the molecule `NS(=O)(=O)c1cc(-c2nnn[nH]2)c(NCc2cccs2)cc1Cl` [AZOSEMIDE], the AC50 (in assay [1]; on B2 bradykinin receptor; in assay [2]; in [3]; at Progesterone receptor; in [6]) was more than 30 µM in each case.

`CS(=O)(=O)Nc1cc2occ(NC=O)c(=O)c2cc1Oc1ccccc1` [IGURATIMOD]: the half-maximal activity concentration (AC50) (on Progesterone receptor; in [6]) was more than 30 µM each time.

On to `CC(=O)N[C@H]1[C@H]([C@H](O)[C@H](O)CO)OC(C(=O)O)=C[C@@H]1N=C(N)N` [ZANAMIVIR], for which the concentration at half-maximal activity (AC50) (in [1]; on B2 bradykinin receptor; in assay [2]; in assay [3]; on Cannabinoid receptor 1; in [4]) was more than 30 µM in each case. For the same molecule, the half-maximal activity concentration (AC50) (at Progesterone receptor; in [6]) was more than 30 µM each time.

For `N[C@@H](CSCC(=O)O)C(=O)O` [CARBOCYSTEINE], the half-maximal activity concentration (AC50) (in assay [1]; at B2 bradykinin receptor; in assay [2]; in [3]; in assay [4]; on Progesterone receptor) was more than 30 µM in each case. Moreover, the concentration at half-maximal activity (AC50) in assay [6] was more than 30 µM.

For `NS(=O)(=O)c1cc(Cl)c(Cl)c(S(N)(=O)=O)c1` [DICHLORPHENAMIDE], the AC50 in assay [1] was more than 10 µM; on B2 bradykinin receptor, more than 10 µM; in [2], more than 10 µM; in assay [3], more than 30 µM; at Cannabinoid receptor 1, more than 10 µM; in [4], more than 10 µM. For the same molecule, the AC50 (on Progesterone receptor; in [6]) was more than 10 µM throughout.

With `CN(CCCN1c2ccccc2CCc2ccccc21)CC(=O)c1ccc(Cl)cc1` [LOFEPRAMINE], the AC50 is more than 30 µM in assay [1], more than 10 µM on B2 bradykinin receptor, more than 30 µM in [2] and 6.9 µM on Cannabinoid receptor 1.

With `CN(C)CCCN1c2ccccc2Sc2ccccc21` [PROMAZINE], the concentration at half-maximal activity (AC50) in assay [1] was more than 10 µM; at B2 bradykinin receptor, more than 30 µM; in assay [2], more than 30 µM; on Cannabinoid receptor 1 it was more than 10 µM; in assay [4], more than 10 µM; in [5] it was more than 30 µM.

Consider `CN(C/C=C/c1ccccc1)Cc1cccc2ccccc12` [NAFTIFINE], for which the concentration at half-maximal activity (AC50) in assay [1] is more than 30 µM; on B2 bradykinin receptor, more than 30 µM; in [2], more than 30 µM; in assay [3], more than 30 µM; on Cannabinoid receptor 1, 9.87 µM; in assay [4] it was more than 10 µM. At Progesterone receptor, this molecule gave a half-maximal activity concentration (AC50) of more than 30 µM.

Consider `O=P(O)(O)C(O)(Cc1cccnc1)P(=O)(O)O` [RISEDRONIC ACID], for which the AC50 was more than 30 µM in [1]; more than 30 µM on B2 bradykinin receptor; more than 30 µM in assay [2]; more than 30 µM at Cannabinoid receptor 1; more than 10 µM in [4]; more than 30 µM in assay [5]. This molecule returned an AC50 at Progesterone receptor of more than 30 µM.

On to `C[N+](C)(C)CCOC(N)=O` [CARBAMOYLCHOLINE], for which the concentration at half-maximal activity (AC50) in assay [1] is more than 10 µM; on B2 bradykinin receptor, more than 10 µM; in assay [2] it was more than 10 µM; on Cannabinoid receptor 1, more than 10 µM; in [4] it was more than 30 µM; on Progesterone receptor, more than 10 µM.
